Source: US20240109918A1, “HETEROCYCLIC COMPOUNDS AND USES THEREOF” (Kumquat Biosciences Inc., priority 2022, published 2024)

Key:
[1] = target: T1, KRASwt (Homo sapiens, UniProt P01116); assay: Bio-Biochem-PPI-HTRF Ras-SOS1 interaction assay (KRAS wt); format: biochemical; conditions: 5 nM
T1 construct: made in house; host or cells: E. coli BL21 (DE3)
Method: (§1) The assay buffer can contain −5 mM HEPES pH 7.4, ˜150 mM NaCl, ˜ 1 mM DTT, 0.05% BSA and 0.0025% (v/v) Igepal. A Ras working solution is prepared in an assay buffer containing typically a suitable amount of the protein construct (e.g., GST-tagged K-Ras mutant) and the FRET donor (e.g., antiGST-Eu(K) from Cisbio, France). A SOS1 working solution is prepared in an assay buffer containing suitable amount of the protein construct (e.g., His-hSOS1) and the FRET acceptor (e.g., anti-6His-XL665 from Cisbio, France). A suitable amount of the protein construct will depend on the range of activity or range of IC50 values being detected or under investigation. For detecting IC50 within a range of 500 nM, the protein constructs of the same range of molarity can be utilized. […] A fixed volume of DMSO with or without test compound is transferred into a 384-well plate. Ras working solution is added to all wells of the test plate. SOS1 working solution is added to all wells except for those that are subsequently filled the inhibitor control solution. Upon incubation for about 10 minutes or longer, the fluorescence is measured with a M1000Pro plate reader (Tecan) using HTRF detection (excitation 337 nm, emission 1:620 nm, emission 2: 665 nm). Compounds are tested in duplicates at different concentrations (for example, 10 μM, 2.5 μM, 0.63 μM, 0.16 μM, 0.04 μM, 0.01 μM test compound). The ratiometric data (i.e., emission 2 divided by emission 1) is used to calculate IC50 values against Ras using GraphPad Prism (GraphPad software). Following this general procedure, samples were tested with or without a subject compound disclosed herein including compounds exemplified in Table 1 to assess their abilities to inhibit a mutant K-Ras relative to another mutant K-Ras or wildtype K-Ras. Signaling output measured in terms of IC50 values can be obtained, a ratio of IC50 against one mutant relative to another mutant can be calculated. For instance, a selective reduction of K-Ras G12D signaling output can be evidenced by a ratio greater than one. In particular, a selective reduction of K-Ras G12D signaling relative to K-Ras WT signaling is evidenced as the ratio of IC50 (against K-Ras WT) to IC50 (against K-Ras G12D) is greater than 1.

[2] = target: T2, KRASG12D (Homo sapiens, UniProt P01116, G12D); assay: Bio-Biochem-PPI-HTRF Ras-SOS1 interaction assay (KRAS G12D); format: biochemical; conditions: 5 nM
T2 construct: made in house; host or cells: E. coli BL21 (DE3)
Method: as §1

T2 sequence (P01116 1-188 isoform P01116-2 G12D): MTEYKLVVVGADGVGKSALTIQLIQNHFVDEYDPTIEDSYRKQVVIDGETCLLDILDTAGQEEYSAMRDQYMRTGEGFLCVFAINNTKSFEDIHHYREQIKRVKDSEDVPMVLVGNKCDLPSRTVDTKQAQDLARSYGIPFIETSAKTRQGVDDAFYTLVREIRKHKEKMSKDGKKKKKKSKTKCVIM
T1 sequence (P01116 1-188 isoform P01116-2): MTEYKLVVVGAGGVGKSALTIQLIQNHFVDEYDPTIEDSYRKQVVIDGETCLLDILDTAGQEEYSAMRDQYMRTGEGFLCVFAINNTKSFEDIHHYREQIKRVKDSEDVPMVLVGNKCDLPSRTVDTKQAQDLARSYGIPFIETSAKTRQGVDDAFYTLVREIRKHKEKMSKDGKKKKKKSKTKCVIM

IC50 [1] [µM]	IC50 [2] [µM]	Compound
< 5	< 5	C#Cc1c(F)ccc2cc(O)cc(-c3ccc4c(N5CCCCC6(CN(C(=O)[C@H]7CC7(F)F)C6)C5)nc(OC[C@@]56CCCN5C[C@H](F)C6)nc4c3F)c12 [compound 305, ((R)-2,2-difluorocyclopropyl) (6-(7-(8-ethynyl-7-fluoro-3-hydroxynaphthalen-1-yl)-8-fluoro-2-(((2R,7aS)-2-fluorotetrahydro-1H-pyrrolizin-7a(5H)-yl)methoxy)quinazolin-4-yl)-2,6-diazaspiro[3.6]decan-2-yl)methanone]
< 5	< 5	C#Cc1c(F)ccc2cc(O)cc(-c3ccc4c(N5CCOC6(CNC6)C5)nc(OC[C@@]56CCCN5C[C@H](F)C6)nc4c3F)c12 [compound 158, 5-ethynyl-6-fluoro-4-(8-fluoro-2-(((2R,7aS)-2-fluorotetrahydro-1H-pyrrolizin-7a(5H)-yl)methoxy)-4-(5-oxa-2,8-diazaspiro[3.5]nonan-8-yl)quinazolin-7-yl)naphthalen-2-ol]
≥ 5	≥ 5	C#Cc1c(F)ccc2cc(O)cc(-c3nc4c(cc3F)c(N3CCOC5(CNC5)C3)nc(=O)n4-c3c(C)ccnc3C(C)C)c12 [compound 170, 7-(8-ethynyl-7-fluoro-3-hydroxynaphthalen-1-yl)-6-fluoro-1-(2-isopropyl-4-methylpyridin-3-yl)-4-(5-oxa-2,8-diazaspiro[3.5]nonan-8-yl)pyrido[2,3-d]pyrimidin-2(1H)-one]
	< 5	N#Cc1c(N)sc2c(F)ccc(-c3c(Cl)cc4c(N5CCCCC6(CN(C(=O)C7CC(C#N)C7)C6)C5)nc(OC[C@@]56CCCN5C[C@H](F)C6)nc4c3F)c12 (stereo partly drawn) [compound 295, 2-amino-4-(6-chloro-4-(2-(3-cyanocyclobutane-1-carbonyl)-2,6-diazaspiro[3.6]decan-6-yl)-8-fluoro-2-(((2R,7aS)-2-fluorotetrahydro-1H-pyrrolizin-7a(5H)-yl)methoxy)quinazolin-7-yl)-7-fluorobenzo[b]thiophene-3-carbonitrile]
	< 5	N#Cc1c(N)sc2c(F)ccc(-c3c(Cl)cc4c(N5CCCCC6(CN(C(=O)C7CC7)C6)C5)nc(OC[C@@]56CCCN5C[C@H](F)C6)nc4c3F)c12 [compound 281, 2-amino-4-(6-chloro-4-(2-(cyclopropanecarbonyl)-2,6-diazaspiro[3.6]decan-6-yl)-8-fluoro-2-(((2R,7aS)-2-fluorotetrahydro-1H-pyrrolizin-7a(5H)-yl)methoxy)quinazolin-7-yl)-7-fluorobenzo[b]thiophene-3-carbonitrile]
	< 5	N#Cc1c(N)sc2c(F)ccc(-c3c(Cl)cc4c(N5CCCCC6(CN(C(=O)C7C8COCC87)C6)C5)nc(OC[C@@]56CCCN5C[C@H](F)C6)nc4c3F)c12 (stereo partly drawn) [compound 299, 4-(4-(2-(3-oxabicyclo[3.1.0]hexane-6-carbonyl)-2,6-diazaspiro [3.6]decan-6-yl)-6-chloro-8-fluoro-2-(((2R,7aS)-2-fluorotetrahydro-1H-pyrrolizin-7a(5H)-yl)methoxy)quinazolin-7-yl)-2-amino-7-fluorobenzo[b]thiophene-3-carbonitrile]
	< 5	N#Cc1c(N)sc2c(F)ccc(-c3c(Cl)cc4c(N5CCCCC6(CN(C(=O)N7CC(F)(F)C7)C6)C5)nc(OC[C@@]56CCCN5C[C@H](F)C6)nc4c3F)c12 [compound 307, 2-amino-4-(6-chloro-4-(2-(3,3-difluoroazetidine-1-carbonyl)-2,6-diazaspiro[3.6]decan-6-yl)-8-fluoro-2-(((2R,7aS)-2-fluorotetrahydro-1H-pyrrolizin-7a(5H)-yl)methoxy)quinazolin-7-yl)-7-fluorobenzo[b]thiophene-3-carbonitrile]
	< 5	N#Cc1c(N)sc2c(F)ccc(-c3c(Cl)cc4c(N5CCCCC6(CN(C(=O)C78CC(C#N)(C7)C8)C6)C5)nc(OC[C@@]56CCCN5C[C@H](F)C6)nc4c3F)c12 [compound 321, 2-amino-4-(6-chloro-4-(2-(3-cyanobicyclo[1.1.1]pentane-1-carbonyl)-2,6-diazaspiro[3.6]decan-6-yl)-8-fluoro-2-(((2R,7aS)-2-fluorotetrahydro-1H-pyrrolizin-7a(5H)-yl)methoxy)quinazolin-7-yl)-7-fluorobenzo[b]thiophene-3-carbonitrile]
	< 5	N#Cc1c(N)sc2c(F)ccc(-c3c(Cl)cc4c(N5CCCCC6(CN(C(=O)CC7COC7)C6)C5)nc(OC[C@@]56CCCN5C[C@H](F)C6)nc4c3F)c12 [compound 297, 2-amino-4-(6-chloro-8-fluoro-2-(((2R,7aS)-2-fluorotetrahydro-1H-pyrrolizin-7a(5H)-yl)methoxy)-4-(2-(2-(oxetan-3-yl)acetyl)-2,6-diazaspiro[3.6]decan-6-yl)quinazolin-7-yl)-7-fluorobenzo[b]thiophene-3-carbonitrile]
	< 5	N#Cc1c(N)sc2c(F)ccc(-c3c(Cl)cc4c(N5CCCCC6(CN(C(=O)N7CC[C@H]7C#N)C6)C5)nc(OC[C@@]56CCCN5C[C@H](F)C6)nc4c3F)c12 [compound 264, (2S)-1-(6-(7-(2-amino-3-cyano-7-fluorobenzo[b]thiophen-4-yl)-6-chloro-8-fluoro-2-(((2R,7aS)-2-fluorotetrahydro-1H-pyrrolizin-7a(5H)-yl)methoxy)quinazolin-4-yl)-2,6-diazaspiro[3.6]decane-2-carbonyl)azetidine-2-carbonitrile]
	< 5	N#Cc1c(N)sc2c(F)ccc(-c3c(Cl)cc4c(N5CCCCC6(CN(C(=O)N7CC(C(F)F)C7)C6)C5)nc(OC[C@@]56CCCN5C[C@H](F)C6)nc4c3F)c12 [compound 262, 2-amino-4-(6-chloro-4-(2-(3-(difluoromethyl)azetidine-1-carbonyl)-2,6-diazaspiro[3.6]decan-6-yl)-8-fluoro-2-(((2R,7aS)-2-fluorotetrahydro-1H-pyrrolizin-7a(5H)-yl)methoxy)quinazolin-7-yl)-7-fluorobenzo[b]thiophene-3-carbonitrile]
	< 5	N#Cc1c(N)sc2c(F)ccc(-c3c(Cl)cc4c(N5CCCCC6(CN(C(=O)C7CC78CCOC8)C6)C5)nc(OC[C@@]56CCCN5C[C@H](F)C6)nc4c3F)c12 (stereo partly drawn) [compound 310, 4-(4-(2-(5-oxaspiro[2.4]heptane-1-carbonyl)-2,6-diazaspiro[3.6]decan-6-yl)-6-chloro-8-fluoro-2-(((2R,7aS)-2-fluorotetrahydro-1H-pyrrolizin-7a(5H)-yl)methoxy)quinazolin-7-yl)-2-amino-7-fluorobenzo [b]thiophene-3-carbonitrile]
	< 5	CN1CCC[C@H]1COc1nc(N2CCOC3(CNC3)C2)c2cc(Cl)c(-c3ccc(F)c4sc(N)c(C#N)c34)c(F)c2n1 (single isomer, unassigned; atropisomer 2) [compound 121]
	< 5	N#Cc1c(N)sc2c(F)ccc(-c3c(Cl)cc4c(N5CCCCC6(CN(C(=O)NC7(C(F)(F)F)CC7)C6)C5)nc(OC[C@@]56CCCN5C[C@H](F)C6)nc4c3F)c12 [compound 315, 6-(7-(2-amino-3-cyano-7-fluorobenzo[b]thiophen-4-yl)-6-chloro-8-fluoro-2-(((2R,7aS)-2-fluorotetrahydro-1H-pyrrolizin-7a(5H)-yl)methoxy)quinazolin-4-yl)-N-(1-(trifluoromethyl)cyclopropyl)-2,6-diazaspiro[3.6]decane-2-carboxamide]
	< 5	N#Cc1c(N)sc2c(F)ccc(-c3c(Cl)cc4c(N5CCCCC6(CN(C(=O)CC7CC7(F)F)C6)C5)nc(OC[C@@]56CCCN5C[C@H](F)C6)nc4c3F)c12 (stereo partly drawn) [compound 331, 2-amino-4-(6-chloro-4-(2-(2-(2,2-difluorocyclopropyl)acetyl)-2,6-diazaspiro[3.6]decan-6-yl)-8-fluoro-2-(((2R,7aS)-2-fluorotetrahydro-1H-pyrrolizin-7a(5H)-yl)methoxy)quinazolin-7-yl)-7-fluorobenzo[b]thiophene-3-carbonitrile]
	< 5	N#Cc1c(N)sc2c(F)ccc(-c3c(Cl)cc4c(N5CCCCC6(CN(C(=O)C(F)Cl)C6)C5)nc(OC[C@@]56CCCN5C[C@H](F)C6)nc4c3F)c12 (stereo partly drawn) [compound 291, 2-amino-4-(6-chloro-4-(2-(2-chloro-2-fluoroacetyl)-2,6-diazaspiro[3.6]decan-6-yl)-8-fluoro-2-(((2R,7aS)-2-fluorotetrahydro-1H-pyrrolizin-7a(5H)-yl)methoxy)quinazolin-7-yl)-7-fluorobenzo[b]thiophene-3-carbonitrile]
